Source: publication PMC5392761, “Discovery of Antimalarial Azetidine-2-carbonitriles That Inhibit P. falciparum Dihydroorotate Dehydrogenase” (ACS Medicinal Chemistry Letters, 2017)

Experiment: Mouse pharmacokinetics assay (IV and PO)
Format: in vivo, CD-1 mice
Settings: mice

CCCNC(=O)N1[C@H](C#N)[C@H](c2ccc(-c3ccc(C(F)(F)F)c(C(F)(F)F)c3)cc2)[C@H]1CO [Compound 27]
bioavailability (female, CD-1, mouse, in vivo, PO 5 mg/kg, IV 1 mg/kg, read-out: F, bioavailability): 94% | C0, initial serum concentration at t = 0 (IV 1 mg/kg): 4.9 µM | Vss, volume of distribution at steady state (IV 1 mg/kg): 0.37 L/kg | Cmax (PO 5 mg/kg, read-out: Cmax, peak serum concentration): 16.9 µM | DNAUC0-inf, dose-normalized area under the plasma concentration vs time curve (following PO dosing 5 mg/kg): >54.3 µM·h
